Test results published in patent publication US11672757B2, “Hot melt extrusion for pharmaceutical vaginal film products” (UNIVERSITY OF PITTSBURGH-OF THE COMMONWEALTH SYSTEM OF …, priority 2017, dated 2023).
In brackets after ≈: the same amount, converted by molar mass.

Columns and labels:
[1] = tested on: G. vaginalis (ATCC 14018); assay: Zone of inhibition on HBT plate lawn; type: cell-based, Gardnella vaginalis; settings: 37° C., 6% CO2, 48 hours
Method: To test the bioactivity of metronidazole film, Gardnella vaginalis (G. vaginilis) (ATCC 14018) was plated on HBT plates to form a lawn. A metronidazole film was placed in the middle of the plated bacteria and plates were incubated at 37° C. with 6% CO2 for 48 hours. Post incubation, the plates were visually inspected for the formation of a zone of inhibition. Placebo films and metronidazole drug substance were prepared and tested in the same manner as the controls. […] This confirms that G. vaginilis growth is inhibited by the presence of both the metronidazole drug substance alone and within the film. On the other hand, G. vaginilis was not affected by the placebo film.
To test the bioactivity of bacterial/metronidazole combination film, G. vaginalis (ATCC 14018) was plated on Human Blood Tween Bilayer (HBT) plates to form a lawn. Bacteria/metronidazole film was placed in the middle of the HBT plated bacteria and plates were incubated at 37° C. with 6% CO2 for 48 hours. Post incubation, the plates were visually inspected for the formation of a zone of inhibition and L. jensenii growth. Placebo films, metronidazole drug substance, and bacterial loaded film were prepared and tested in the same manner as the controls. […] Therefore, the desired in vivo antimicrobial and probiotic effects of the combination film were confirmed in vitro. […]

human cervical explants = settings: cited from earlier work
rabbit model = settings: in vivo rabbit model; cited from earlier work
[2] = tested on: wild type and resistant mutant HIV; settings: cited from earlier work
TZM-bl cells = type: cell-based
Method: A DPV film was dissolved in 2 mL of saline and ten-fold serial dilutions were made. The DPV drug substance stock solution (1000 nM) was mixed in DMSO and serially diluted in DMEM with 10% BSA supplemented with antibiotics, which is the medium used in the TZM-bl assay. All dilution samples were added in triplicates to the TZM-bl cells that were plated. […] For cellular toxicity evaluation, similar set up of the experiment was conducted. Except that for toxicity study, the cells were not exposed to the virus. In this study the cells were exposed to CellTiter-Glo, and luminescence signal was measured. Cellular viability was determined based on the deviation from the cell-only control (Nixon, B., et al., Griffithsin protects mice from genital herpes by preventing cell-to-cell spread. J. Virol., 2013, 87(11):6257-6269).

[3] = pH 9; cited from earlier work

**Q.** For `Cc1ncc([N+](=O)[O-])n1CCO` [Metronidazole], which zone of inhibition [1] is on record?
**A.** The zone of inhibition was about 1.5 cm.

**Q.** For Griffithsin [GRFT], which “safety” value (human cervical explants) is on record?
**A.** Its value is “safe”.

**Q.** And the “safety” value (rabbit model)?
**A.** The value was “safe”.

**Q.** For `Cc1cc(C)c(Nc2ccnc(Nc3ccc(C#N)cc3)n2)c(C)c1` [DPV, Dapivirine], which EC50 [2] is on record?
**A.** The EC50 was 0.3 ng/mL (≈ 0.911 nM).

**Q.** And the EC90 [2]?
**A.** Its EC90 is 0.9 ng/mL (≈ 2.73 nM).

**Q.** What about the “cellular toxicity” value (TZM-bl cells) of the same molecule?
**A.** Its value is “no cellular toxicity”.

**Q.** What about the logP [3] of the same molecule?
**A.** The logP was 5.27.
